The values that follow come from US11661404B2, “Prodrug compounds activated by AKR1C3 and their use for treating hyperproliferative disorders” (priority 2018, dated 2023).

Molecules are shown by their SMILES. Where two headings read alike, the source gives them in different places.

As usually defined, the IC50 is the midpoint of a concentration-inhibition curve.

Series [1] concerns wild-type SNU398 hepatocellular carcinoma cells. As to the kind of experiment: Anti-proliferative IC50 assay, wild-type SNU398. The class given is cell-based. The settings on record: Homo sapiens. The protocol:
Four hundred cells were seeded in a volume of 100 μL in each well of a 96-well plate. The cells were left in a humidified incubator (37° C., 5% CO2) for 2 hours in order to enable attachment to the surface of the wells prior to compound addition. All compounds were prepared as stocks in DMSO and stored at −80° C. Frozen stocks of compounds were thawed immediately prior to addition to cells. Working solutions of each compound were made in α-MEM+5% FBS (v/v) at 3 times the required final concentration for the top well. The final concentration of DMSO in the α-MEM solution was ensured to not exceed 1% of the total volume. 50 μL of the working solution was added to the top wells (in duplicates) and gently mixed. The solubility of some compounds precluded the working solution in α-MEM to be 3 times the desired top well concentration. […] A 3-fold serial dilution was carried out along the plate starting from the top well. The first column of wells on the plate served as blanks (containing α-MEM+FBS) and the second column served as control wells (containing cells with no compound added). Following compound addition, the plates were incubated for 4 hours in a humidified incubator (37° C., 5% CO2).
Following the 4 hour compound exposure, the 96-well plates were washed three times by aspirating media with an Immuno Washer (Nunc) and each well replaced with 150 μL of α-MEM+5% (v/v) FBS+1% (v/v) P/S. The plates were left in a humidified incubator (37° C., 5% CO2) for 5 days to enable cell growth. The cells in 96-well plates were fixed 5 days after compound exposure by adding 50 μL of a 40% (w/v) trichloroacetic acid (TCA) solution so as to obtain a final TCA concentration of 10% in each well. The plates were left in the refrigerator (4° C.) for 1 hour and subsequently rinsed 3 times in tap water. Any excess water was left to drain and the cells were stained with 50 μL of 0.4% (w/v) sulforhodamine B (SRB). The plates with the SRB stain were left in the dark for 30 minutes. Excess stain was removed from the wells by rinsing the plates 4 times in water containing 1% (v/v) acetic acid. The stain was solubilised by adding 100 μL of 10 mM unbuffered Tris (pH 10.5) to each well and the plates were left in a shaker in a dark environment at room temperature for at least 1 hour. The absorbance values of the wells were determined by an ELx 808 Absorbance Microplate Reader (Bio-Tek Instruments, Winooski, Vt., USA), with the wavelength of the measurement filter set at 490 nm and a reference filter set at 450 nm. The absorbance of the reference filter was subtracted from the measurement filter to obtain a final absorbance of λ490-450 nm. The absorbance data was analysed and IC50 values determined by the KC4 microplate data analysis software (KC4™ V3.4, Bio-Tek).
Anti-proliferative IC50 assays were repeated as described above including the addition of 3 μM SN34037, a selective and potent small molecule inhibitor of AKR1C3.
Materials and methods used are as described for Example 9. […] This is a surprising finding and considerably greater than the approximately 77-fold, 270-fold and 400-fold increase in sensitivity observed for PR-104A, SN33540 and SN34454, respectively. In all cases, this increase in cytotoxicity resulting from expression of AKR1C3 can be substantially reversed by addition of an AKR1C3 inhibitor (SN34037), directly implicating metabolism of the prodrugs by AKR1C3 in the observed increase in cytotoxicity. As an important control, introduction of SN34037 had no anti-proliferative effects in wild-type SNU398 cells treated with compounds of the invention.

Series [2] deals with wild-type HCT116 colon cancer cells. The experiment in a line: Anti-proliferative IC50 under oxic and anoxic conditions. Type of series: cell-based, human. The settings on record: for IC50: Homo sapiens, HCT-116; for Hypoxic Cytotoxicity Ratio (HCR): oxic vs anoxic IC50, HCT116-WT. An excerpt: PR-104A was initially designed and optimised as a hypoxia-selective cytotoxin (Patterson et al, Clinical Cancer Research, 2007, 13, 3922-3932). In the context of an AKR1C3-activated prodrug, this route of activation is considered off-mechanism and may potentially be undesirable, leading to off-target toxicities in a subject. Preferred compounds of the invention have been determined to be substantially resistant to hypoxia-dependent activation and cytotoxicity in wild-type HCT116 colon cancer cells. HCT116 cells were treated with compounds of the invention under either oxic or anoxic conditions and then their degree of anti-proliferative activity determined.
Selected compounds were evaluated for cytotoxic potential (IC50) under anoxic conditions. The same procedures as described above for Examples 9-11 were carried out in a Bactron anoxic chamber (Sheldon Manufacturing Inc) with internal 37° C. incubators where palladium catalyst scrubbed gas (90% N2, 5% H2, 5% CO2) ensured severe anoxia (<0.001% O2) in the whole chamber. All materials required (including cells) were taken into the chamber through two cycles of vacuum and gassing with 100% N2, followed by a single cycle with 5% CO2 and 5% hydrogen in nitrogen. All experimental materials were placed in the anoxic chamber at least 3 days prior to the day required for the experiment in order to remove any traces of residual O2. The medium used for the 96-well plates in the anoxic chamber consisted of α-MEM+10% (v/v) FBS+1% (v/v) additives (1 M β-D-Glucose and 20 mM 2′-Deoxycytidine).

For series [3], the system named is H460 lung cancer xenografts. As to the kind of experiment: Tumour growth delay, H460 xenografts. The class given is in vivo, NIH-III mice. Conditions: q4dx3 intraperitoneal; for tolerability of schedule: 237, 178 and 178 μmol/kg. The text has this: Specific pathogen-free female homozygous nude NIH-III (NIH-Lyst^bg Foxn1^nu Btk^xid) mice were bred by the Vernon Jansen Unit (shared vivarium, University of Auckland). Animals were housed in Techniplast microisolator cages and provided with a standard twelve hour day-night light schedule. Animals received standard rodent diet (Harlan Teklad diet 2018i) and water ad libitum. All animal studies were approved by the University of Auckland Animal Ethics Committee.
Animals weighed 18-25 g at the time of tumour inoculation. Tumours were grown subcutaneously on the right flank of mice by inoculating cells grown in tissue culture (1×10^7 cells in 100 uL serum free α-MEM). Tumour sizes were monitored three times weekly using electronic callipers and treatments were initiated once tumour diameter reached ≥7 mm.
Tumour bearing mice were randomised into the appropriate treatment groups and tumour size and body weight recorded. Test compounds were formulated on the day of the experiment and kept in foil-wrapped tubes out of direct fluorescent light. If recruitment of animals occurred over multiple days, the drug stocks were aliquoted into tubes and frozen once at −80° C. until required. Mice were treated with a single (or q4dx3 or q4dx4 or q4dx6) dose of a compound of the invention by intraperitoneal injection and thereafter tumour size and body weight was monitored every second day. Tumour volume was calculated as […] (l×w×w)/6, where l is the major axis and w is the perpendicular minor axis. Animals were culled when they had reached the appropriate survival endpoint or when body weight loss exceeded 20% of the pre-treatment value.

Where [4] appears, read: SNU-398, read-out: SNU398-WT +AKR1C3 Inhibitor Anti-proliferative IC50.
Setting [5] is: SNU-398, read-out: SNU398-WT Anti-proliferative IC50.
Setting [6] is: anoxic (<0.001% O2), read-out: HCT116-WT Anti-proliferative IC50 Anoxic.
Setting [7] is: read-out: HCT116-WT Anti-proliferative IC50 Oxic.

For `CS(=O)(=O)OCCN(CCBr)c1c(C(=O)NCCO)cc([N+](=O)[O-])cc1[N+](=O)[O-]` [PR-104A, 2-((2-bromoethyl)(2-((2-hydroxyethyl)-carbamoyl)-4,6-dinitrophenyl)amino)ethyl methanesulfonate, reference compound], the IC50 in series [1] (setting [4]) was found to be 92.4 µM; in series [1] (setting [5]) it was 89.8 µM; in series [2] (setting [6]), 2.83 µM; in series [2] (setting [7]), 55.8 µM. For the same compound, the “Hypoxic Cytotoxicity Ratio (HCR)” value in series [2] was found to be 20.
Turning to `CS(=O)(=O)OCCN(CCBr)c1ccc([N+](=O)[O-])cc1S(=O)(=O)N1CCN(CC(O)CO)CC1` (stereo not drawn) [Compound 605, 2-((2-bromoethyl)(2-((4-(2,3-dihydroxypropyl)piperazin-1-yl)sulfonyl)-4-nitrophenyl)amino)ethyl methanesulfonate], the values for the IC50 in series [1] (setting [4]) and in series [1] (setting [5]) were 14.4 µM and 16.2 µM, respectively.
For the compound `CN1CCN(S(=O)(=O)c2cc([N+](=O)[O-])ccc2N(CCOS(C)(=O)=O)CCOS(C)(=O)=O)CC1` [Compound 641, ((2-((4-methylpiperazin-1-yl)sulfonyl)-4-nitrophenyl)azanediyl)bis(ethane-2,1-diyl) dimethanesulfonate], the tolerability of schedule entry in series [3] is listed as “well-tolerated”. Besides, the 50% inhibitory concentration (IC50) was 15.4 µM in series [1] (setting [4]), 10.3 µM in series [1] (setting [5]), 2.52 µM in series [2] (setting [6]) and 5.91 µM in series [2] (setting [7]). In addition, the “Hypoxic Cytotoxicity Ratio (HCR)” value in series [2] is 2.
With `CN1CCN(C(=O)c2cc([N+](=O)[O-])ccc2N(CCBr)CCOS(C)(=O)=O)CC1` [SN34454, reference compound], in series [3], the tolerability of schedule result was “well-tolerated”. Besides, in series [3] (SN34454 237, 602 178, 641 178 μmol/kg, FIG. 2), the “anti-tumour efficacy (mean tumour volume)” value is recorded as “anti-tumour efficacy”. Besides, the concentration for half-maximal inhibition (IC50) in series [1] (setting [4]) worked out at 48.9 µM; in series [1] (setting [5]), 60.5 µM.
Take `CN1CCN(S(=O)(=O)c2cc([N+](=O)[O-])ccc2N(CCBr)CCOS(C)(=O)=O)CC1` [Compound 602, 2-((2-bromoethyl)(2-((4-methylpiperazin-1-yl)sulfonyl)-4-nitrophenyl)amino)ethyl methanesulfonate]: the tolerability of schedule result in series [3] is on record as “well-tolerated”. The IC50 in series [1] (setting [4]) is 6.65 µM; in series [1] (setting [5]) it was 6.74 µM; in series [2] (setting [6]) it was 3.51 µM; in series [2] (setting [7]), 4.26 µM.
Regarding `O=[N+]([O-])c1ccc(N(CCBr)CCBr)c(S(=O)(=O)N2CCN(CC(O)CO)CC2)c1` (stereo not drawn) [Compound 566, 3-(4-((2-(bis(2-bromoethyl)amino)-5-nitrophenyl)sulfonyl)piperazin-1-yl)propane-1,2-diol], the values for the half-inhibitory concentration (IC50) in series [1] (setting [4]) and in series [1] (setting [5]) were 10.2 µM and 9.64 µM, respectively.
